The record followed here is US9399649B2, “Compounds for treating spinal muscular atrophy” (PTC Therapeutics Inc., priority 2012, dated 2016).

Data set [1] relates to full length SMN2 minigene mRNA containing SMN2 exon 7. Put plainly: SMN2 minigene mRNA splicing RT-qPCR assay in cultured cells. The data set is classed as cell-based, human. Conditions: Homo sapiens, HEK293-H; HEK293H cells stably transfected with SMN2-A minigene, 24 hours, 7-point concentration curve; concentration giving 1.5-fold full length SMN2 mRNA vs vehicle; read-out: EC1.5x for production of full length SMN2 mRNA. The procedure, abridged:
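HEK293H cells stably carrying SMN2-A minigene treated 24 h (37 °C) with compound, 7-point 3.16-fold dilution, duplicates. Multiplex RT-qPCR on lysate with exon 7/luciferase primers and exon 7–8 junction probe (minigene-specific). Full-length transcript normalised to GAPDH by modified ΔΔCt, expressed relative to vehicle-treated cells.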

The test system of another data set is Smn protein. The experiment in a line: Smn protein assay in cultured cells (SMN HTRF). Conditions: SMA patient fibroblast cells (GM03813), 48 hours; for EC1.5x for Smn protein expression: 7-point concentration curve, concentration producing 1.5 times Smn protein vs DMSO vehicle; for maximum fold (Fold) increase of Smn protein: 7-point concentration data, relative to vehicle control. It counts as cell-based, human. In outline:
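SMA patient fibroblasts, 5,000 per well in DMEM-10% FBS, exposed 48 h at 37° C. to a 7-point, 3.16-fold compound series in triplicate. RIPA lysates read by SMN HTRF (665/620 nm, overnight at room temperature); ΔF over blank expressed as fold of vehicle.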
For orientation: TR-FRET usually uses a lanthanide donor and a delayed reading to cut background.

In general, melting point refers to the temperature, or range, at which the solid turns liquid.

The molecule `Cc1cn2cc(-c3cc4ccc(N5CCN[C@@H](C)C5)cc4c(=O)o3)nc2cn1` [Cpd 57, 3-(6-methylimidazo[1,2-a]pyrazin-2-yl)-7-[(3S)-3-methylpiperazin-1-yl]-1H-isochromen-1-one] returned a melting point of 242 to 244 °C. In addition, the EC (1.5-fold) in data set [1] was ≤ 0.1 µM. In the data set with Smn protein, the “EC1.5x for Smn protein expression” value is reported as “**** (an EC1.5×≦0.3 nM is indicated by four stars (****))” and the “maximum fold (Fold) increase of Smn protein” value (“maximum fold (Fold) increase” below) is “***** (a fold increase >1.65 is indicated by five stars (*****))”.

`Cc1nc2ccc(-c3cc4ccc(N5CCN(C)CC5)cc4c(=O)o3)cc2s1` [Cpd 104, 3-(2-methyl-1,3-benzothiazol-6-yl)-7-(4-methylpiperazin-1-yl)-1H-isochromen-1-one] displayed a melting point of 231 to 236 °C. Further, the EC (1.5-fold) in data set [1] lay in the range of 0.1 to 0.3 µM. Besides, the “maximum fold (Fold) increase” value with Smn protein was “*** (a fold increase between >1.35 and ≦1.5 is indicated by three stars (***))”.

`COc1ccc(-c2cc3ccc(N4CCN[C@@H](C)C4)cc3c(=O)o2)cc1` [Cpd 31, 3-(4-methoxyphenyl)-7-[(3S)-3-methylpiperazin-1-yl]-1H-isochromen-1-one] displayed a melting point of 129 to 131 °C. For the same molecule, the EC (1.5-fold) in data set [1] was ≤ 0.1 µM. Also, in the data set with Smn protein, the “EC1.5x for Smn protein expression” value was “** (an EC1.5× between >1 μM, and ≦3 nM is indicated by two stars (**))”; the “maximum fold (Fold) increase” value was “**** (a fold increase between >1.5 and ≦1.65 is indicated by four stars (****))”.

In turn, `C[C@@H]1CN(c2ccc3cc(-c4ccccn4)oc(=O)c3c2)C[C@H](C)N1` [Cpd 5, 7-[(3R,5S)-3,5-dimethylpiperazin-1-yl]-3-(pyridin-2-yl)-1H-isochromen-1-one] had a melting point of 168 to 170 °C. The EC (1.5-fold) in data set [1] fell in the range of 1 to 3 µM. Besides, in the data set with Smn protein, the “maximum fold (Fold) increase” value was “* (A maximum fold increase of ≦1.2 is indicated by one star (*))”.

`CCCN1CCN(c2ccc3cc(-c4cn5cc(C)nc(C)c5n4)oc(=O)c3c2)C[C@@H]1C` [Cpd 137, 3-(6,8-dimethylimidazo[1,2-a]pyrazin-2-yl)-7-[(3S)-3-methyl-4-propylpiperazin-1-yl]-1H-isochromen-1-one] registered a melting point of 249 to 254 °C. Also, in data set [1], the EC (1.5-fold) was ≤ 0.1 µM. Besides, in the data set with Smn protein, the “EC1.5x for Smn protein expression” value is “**** (an EC1.5×≦0.3 nM is indicated by four stars (****))” and the “maximum fold (Fold) increase” value is given as “***** (a fold increase >1.65 is indicated by five stars (*****))”.

With `Cc1cn2cc(-c3cc4ccc(N5CCN(C(C)(C)C)CC5)cc4c(=O)o3)nc2c(C)n1` [Cpd 83, 7-(4-tert-butylpiperazin-1-yl)-3-(6,8-dimethylimidazo[1,2-a]pyrazin-2-yl)-1H-isochromen-1-one], the melting point was in the range of 300 to 302 °C. Also, the EC (1.5-fold) in data set [1] was in the range of 0.1 to 0.3 µM. For the same molecule, in the data set with Smn protein, the “EC1.5x for Smn protein expression” value is “*** (an EC1.5× between >0.3 nM and ≦1 nM is indicated by three stars (***))”; the “maximum fold (Fold) increase” value was “**** (a fold increase between >1.5 and ≦1.65 is indicated by four stars (****))”.

`Cc1cn2cc(-c3cc4ccc(N5CCN[C@@H](C)C5)cc4c(=O)o3)nc2c(C)n1` [Cpd 63, 3-(6,8-dimethylimidazo[1,2-a]pyrazin-2-yl)-7-[(3S)-3-methylpiperazin-1-yl]-1H-isochromen-1-one] returned a melting point of 325 to 327 °C. Also, in data set [1], the EC (1.5-fold) was ≤ 0.1 µM. For the same molecule, in the data set with Smn protein, the “EC1.5x for Smn protein expression” value is listed as “**** (an EC1.5×≦0.3 nM is indicated by four stars (****))” and the “maximum fold (Fold) increase” value was “***** (a fold increase >1.65 is indicated by five stars (*****))”.

For the molecule `Cc1cn2cc(-c3cc4ccc(C5CCNCC5)cc4c(=O)o3)nc2c(C)n1` [Cpd 96, 3-(6,8-dimethylimidazo[1,2-a]pyrazin-2-yl)-7-(piperidin-4-yl)-1H-isochromen-1-one], the melting point was in the range of 218 to 220 °C. In addition, the EC (1.5-fold) in data set [1] was ≤ 0.1 µM. In the data set with Smn protein, the “EC1.5x for Smn protein expression” value is recorded as “**** (an EC1.5×≦0.3 nM is indicated by four stars (****))” and the “maximum fold (Fold) increase” value is “***** (a fold increase >1.65 is indicated by five stars (*****))”.

In turn, `CCCN1[C@H](C)CN(c2ccc3cc(-c4cn5cc(C)nc(C)c5n4)oc(=O)c3c2)C[C@@H]1C` [Cpd 148, 3-(6,8-dimethylimidazo[1,2-a]pyrazin-2-yl)-7-[(3R,5S)-3,5-dimethyl-4-propylpiperazin-1-yl]-1H-isochromen-1-one] showed a melting point of 259 to 263 °C. The EC (1.5-fold) in data set [1] was ≤ 0.1 µM. For the same molecule, in the data set with Smn protein, the “EC1.5x for Smn protein expression” value is “*** (an EC1.5× between >0.3 nM and ≦1 nM is indicated by three stars (***))”; the “maximum fold (Fold) increase” value is “**** (a fold increase between >1.5 and ≦1.65 is indicated by four stars (****))”.

Turning to `COc1cccc(-c2cc3ccc(N4C[C@@H](C)N[C@@H](C)C4)cc3c(=O)o2)c1` [Cpd 20, 7-[(3R,5S)-3,5-dimethylpiperazin-1-yl]-3-(3-methoxyphenyl)-1H-isochromen-1-one], the melting point was in the range of 195 to 197 °C. For the same molecule, in data set [1], the EC (1.5-fold) fell in the range of 3 to 30 µM. In addition, the “maximum fold (Fold) increase” value with Smn protein is “* (A maximum fold increase of ≦1.2 is indicated by one star (*))”.

Molecule `Cc1cn2cc(-c3cc4ccc(N5CCN(CCO)[C@H](C)C5)cc4c(=O)o3)nc2c(C)n1` [Cpd 142, 3-(6,8-dimethylimidazo[1,2-a]pyrazin-2-yl)-7-[(3R)-4-(2-hydroxyethyl)-3-methylpiperazin-1-yl]-1H-isochromen-1-one] yielded a melting point of 256 to 261 °C. Besides, in data set [1], the EC (1.5-fold) was ≤ 0.1 µM. Further, in the data set on Smn protein, the “EC1.5x for Smn protein expression” value is reported as “**** (an EC1.5×≦0.3 nM is indicated by four stars (****))” and the “maximum fold (Fold) increase” value is given as “***** (a fold increase >1.65 is indicated by five stars (*****))”.

The molecule `C[C@H]1CN(c2ccc3cc(-c4cccc(OC(F)F)c4)oc(=O)c3c2)CCN1` [Cpd 53, 3-[3-(difluoromethoxy)phenyl]-7-[(3S)-3-methylpiperazin-1-yl]-1H-isochromen-1-one] registered a melting point of 132 to 134 °C. For the same molecule, the EC (1.5-fold) in data set [1] was 0.3 to 1 µM. Moreover, the “maximum fold (Fold) increase” value with Smn protein is “** (a fold increase between >1.2 and ≦1.35 is indicated by two stars (**))”.

`COc1ccccc1-c1cc2ccc(N3C[C@@H](C)N[C@@H](C)C3)cc2c(=O)o1` [Cpd 23, 7-[(3R,5S)-3,5-dimethylpiperazin-1-yl]-3-(2-methoxyphenyl)-1H-isochromen-1-one] came in with a melting point of 154 to 157 °C. Moreover, the EC (1.5-fold) in data set [1] was in the range of 1 to 3 µM. In the data set with Smn protein, the “maximum fold (Fold) increase” value is “* (A maximum fold increase of ≦1.2 is indicated by one star (*))”.

Molecule `Cc1cn2cc(-c3cc4ccc(N5CCC(O)CC5)cc4c(=O)o3)nc2c(C)n1` [Cpd 123, 3-(6,8-dimethylimidazo[1,2-a]pyrazin-2-yl)-7-(4-hydroxypiperidin-1-yl)-1H-isochromen-1-one] returned a melting point of 290 to 292 °C. Also, in data set [1], the EC (1.5-fold) lay in the range of 1 to 3 µM. The “maximum fold (Fold) increase” value in the data set with Smn protein is on record as “* (A maximum fold increase of ≦1.2 is indicated by one star (*))”.

Consider `C[C@H]1CN(c2ccc3cc(-c4cn5ccsc5n4)oc(=O)c3c2)CCN1` [Cpd 55, 3-(imidazo[2,1-b][1,3]thiazol-6-yl)-7-[(3S)-3-methylpiperazin-1-yl]-1H-isochromen-1-one], for which the melting point lay within 340 to 342 °C. In addition, the EC (1.5-fold) in data set [1] fell in the range of 0.1 to 0.3 µM. For the same molecule, in the data set with Smn protein, the “maximum fold (Fold) increase” value is “** (a fold increase between >1.2 and ≦1.35 is indicated by two stars (**))”.

On to `CCOc1ccc(-c2cc3ccc(N4CCN[C@@H](C)C4)cc3c(=O)o2)cc1` [Cpd 42, 3-(4-ethoxyphenyl)-7-[(3S)-3-methylpiperazin-1-yl]-1H-isochromen-1-one], for which the melting point was 239 to 240 °C. Moreover, the EC (1.5-fold) in data set [1] fell in the range of 0.1 to 0.3 µM. For the same molecule, the “maximum fold (Fold) increase” value in the data set with Smn protein was “** (a fold increase between >1.2 and ≦1.35 is indicated by two stars (**))”.

Consider `COCCN1CCN(c2ccc3cc(-c4cn5cc(C)nc(C)c5n4)oc(=O)c3c2)CC1` [Cpd 85, 3-(6,8-dimethylimidazo[1,2-a]pyrazin-2-yl)-7-[4-(2-methoxyethyl)piperazin-1-yl]-1H-isochromen-1-one], for which the melting point was in the range of 192 to 194 °C. Further, the EC (1.5-fold) in data set [1] was in the range of 0.1 to 0.3 µM. Further, in the data set on Smn protein, the “EC1.5x for Smn protein expression” value is “*** (an EC1.5× between >0.3 nM and ≦1 nM is indicated by three stars (***))”; the “maximum fold (Fold) increase” value is given as “***** (a fold increase >1.65 is indicated by five stars (*****))”.

In turn, `Cc1cn2cc(-c3cc4ccc(N5CCN(C6CCC6)[C@H](C)C5)cc4c(=O)o3)nc2c(C)n1` [Cpd 143, 7-[(3R)-4-cyclobutyl-3-methylpiperazin-1-yl]-3-(6,8-dimethylimidazo[1,2-a]pyrazin-2-yl)-1H-isochromen-1-one] returned a melting point of 281 to 285 °C. Moreover, the EC (1.5-fold) in data set [1] is ≤ 0.1 µM. Further, in the data set on Smn protein, the “EC1.5x for Smn protein expression” value was “**** (an EC1.5×≦0.3 nM is indicated by four stars (****))” and the “maximum fold (Fold) increase” value was “***** (a fold increase >1.65 is indicated by five stars (*****))”.
